For 15 compounds, TGI results are on record in PubChem BioAssay (NCI).

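Where inhibition never reached the appropriate level, the endpoint shown equals the highest concentration tested. Otherwise, values were interpolated linearly from a five-concentration, 48-hour dose response in 96-well plates. TGI is the concentration that stops growth completely.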 Where only a bound is given, the exact number is not on record here.

Test systems include EKVX NSCLC; OVCAR-8 ovarian; A549 NSCLC; SF-295 CNS; NCI-H460 lung; UACC-257 melanoma; SN12C renal; OVCAR-5 ovarian; SK-MEL-5 melanoma; HT29 colon.
What all share (experiment): NCI-60 cell line screen, 48 h

Consider `Cc1ccc(S(=O)(=O)OCCC2CN(C(=O)OCc3ccccc3)C(C)(C)O2)cc1` (centres undefined), for which the TGI is more than 100 µM with EKVX NSCLC; 29.4 µM with OVCAR-8 ovarian; more than 100 µM with A549 NSCLC; more than 100 µM in the experiment on SF-295 CNS; 14.3 µM with NCI-H460 lung; more than 100 µM in the experiment with UACC-257 melanoma. For the same compound, the TGI was more than 100 µM with SN12C renal, more than 100 µM in the experiment with OVCAR-5 ovarian and 8.76 µM in the experiment on SK-MEL-5 melanoma.
`O=C1N2CCC[C@H]2CS1(=O)=O`: the TGI in the experiment on HT29 colon is 75.1 µM; in the experiment with EKVX NSCLC it was 44.4 µM; with OVCAR-8 ovarian, 55.1 µM; in the experiment on A549 NSCLC, 47.3 µM; in the experiment with SF-295 CNS, more than 100 µM; in the experiment with NCI-H460 lung, 88.1 µM. Moreover, the TGI with UACC-257 melanoma amounted to 37.4 µM; with SN12C renal, 29.1 µM; in the experiment on OVCAR-5 ovarian it was 93.7 µM; with SK-MEL-5 melanoma, 33.3 µM.
As to `CC(=O)CC(=O)N1CCSC1=S`, the TGI with HT29 colon, in the experiment with EKVX NSCLC, in the experiment with OVCAR-8 ovarian, with A549 NSCLC, in the experiment on SF-295 CNS and with NCI-H460 lung was more than 10 µM each time. The TGI in the experiment on UACC-257 melanoma, with SN12C renal, with OVCAR-5 ovarian and in the experiment with SK-MEL-5 melanoma was more than 10 µM each time.
As to `COC(=O)c1c2c(cc3c1CC1(Cc4cc5c(c(C)c4C1)CCC5)C3)CCC2` (centres undefined), the TGI in the experiment with HT29 colon, in the experiment with EKVX NSCLC, with OVCAR-8 ovarian, in the experiment with A549 NSCLC, in the experiment on SF-295 CNS and in the experiment with NCI-H460 lung was more than 100 µM throughout. The TGI in the experiment on UACC-257 melanoma, with OVCAR-5 ovarian and in the experiment on SK-MEL-5 melanoma was more than 100 µM each time.
In the case of `COc1ccc(/C=c2\[nH]c3nc(=O)c(N4CCCCC4)c(N)n3c2=O)cc1`, the TGI in the experiment with HT29 colon, in the experiment on EKVX NSCLC, with OVCAR-8 ovarian, in the experiment on A549 NSCLC, with SF-295 CNS and in the experiment on UACC-257 melanoma was more than 100 µM in each case. Also, the TGI in the experiment with SN12C renal, in the experiment with OVCAR-5 ovarian and in the experiment with SK-MEL-5 melanoma was more than 100 µM each time.
Turning to `COC(=O)c1onc(C2OC(C)(C)OC2C(O)COC(c2ccccc2)(c2ccccc2)c2ccccc2)c1C(=O)OC` (centres undefined), the TGI with HT29 colon, with EKVX NSCLC, in the experiment on OVCAR-8 ovarian, in the experiment on A549 NSCLC, in the experiment on SN12C renal and with OVCAR-5 ovarian was more than 100 µM in each case. Further, in the experiment with SK-MEL-5 melanoma, the TGI is more than 100 µM.
Take `O=C1CC(c2ccsc2)n2cccc21` (centres undefined): the TGI with HT29 colon, with EKVX NSCLC, in the experiment on OVCAR-8 ovarian, in the experiment with A549 NSCLC, in the experiment with SF-295 CNS and in the experiment on UACC-257 melanoma was more than 100 µM each time. In addition, the TGI in the experiment on SN12C renal, in the experiment with OVCAR-5 ovarian and in the experiment on SK-MEL-5 melanoma was more than 100 µM each time.
For `O=C1c2ccncc2C(=O)c2c(O)ccc(O)c21`, the TGI in the experiment on HT29 colon came out at 7.74 µM; in the experiment on EKVX NSCLC, 32.1 µM; with OVCAR-8 ovarian, 21.4 µM; in the experiment with A549 NSCLC, 18.1 µM; in the experiment on SF-295 CNS, 25.1 µM; in the experiment with NCI-H460 lung, 29.4 µM. For the same compound, the TGI with SN12C renal came to 16.1 µM; in the experiment with OVCAR-5 ovarian, 29.9 µM.
Regarding `O=c1cc(N2CCOCC2)n2c(ccc3ccccc32)n1`, the TGI in the experiment on HT29 colon, with EKVX NSCLC, in the experiment with OVCAR-8 ovarian, in the experiment with A549 NSCLC, in the experiment on SF-295 CNS and in the experiment with UACC-257 melanoma was more than 100 µM each time. Further, the TGI in the experiment on SN12C renal, with OVCAR-5 ovarian and with SK-MEL-5 melanoma was more than 100 µM in each case.
Regarding `CCOC(=O)CCc1cn2cc(Br)nc(OC)c2n1`, the TGI in the experiment with HT29 colon, in the experiment on EKVX NSCLC, in the experiment with OVCAR-8 ovarian, in the experiment with A549 NSCLC, in the experiment on SF-295 CNS and in the experiment with NCI-H460 lung was more than 100 µM each time. Moreover, the TGI in the experiment on UACC-257 melanoma, in the experiment with SN12C renal and in the experiment with SK-MEL-5 melanoma was more than 100 µM throughout.
With `COc1cccc2c1OC1c3ccccc3OCC1(O)C2` (centres undefined), the TGI in the experiment on HT29 colon, in the experiment with EKVX NSCLC, in the experiment with OVCAR-8 ovarian, in the experiment on A549 NSCLC, with SF-295 CNS and with UACC-257 melanoma was more than 100 µM each time. Moreover, the TGI in the experiment with SN12C renal, in the experiment on OVCAR-5 ovarian and with SK-MEL-5 melanoma was more than 100 µM in each case.
Regarding `O=c1[nH]nc(-c2ccccc2)c2[nH]c3c(c12)Cc1ccccc1-3`, the TGI is more than 70 µM with HT29 colon; more than 100 µM in the experiment with EKVX NSCLC; more than 100 µM with OVCAR-8 ovarian; more than 100 µM in the experiment with A549 NSCLC; more than 100 µM in the experiment on SF-295 CNS; more than 100 µM with NCI-H460 lung. Moreover, the TGI in the experiment with UACC-257 melanoma, with SN12C renal and with OVCAR-5 ovarian was more than 100 µM each time.
Turning to `CCC1=C(C[C@H]2NCCc3cc(OC)c(OC)cc32)C[C@H]2c3cc(OC)c(OC)cc3CCN2C1`, the TGI in the experiment on HT29 colon is 0.182 µM; with EKVX NSCLC, 0.175 µM; in the experiment on OVCAR-8 ovarian, 0.137 µM; with SF-295 CNS, 0.189 µM; in the experiment on NCI-H460 lung, 0.134 µM; in the experiment with UACC-257 melanoma, 0.365 µM. Moreover, the TGI in the experiment with SN12C renal amounted to 0.193 µM; in the experiment with OVCAR-5 ovarian, 0.49 µM; in the experiment with SK-MEL-5 melanoma, 0.0551 µM.
As for `COc1ccc(-n2c(N)c(C#N)c(C#N)c2-c2ccco2)cc1`, the TGI in the experiment on HT29 colon, in the experiment on EKVX NSCLC, in the experiment with OVCAR-8 ovarian, with A549 NSCLC, with SF-295 CNS and with UACC-257 melanoma was more than 100 µM throughout. In addition, the TGI in the experiment on SN12C renal, with OVCAR-5 ovarian and with SK-MEL-5 melanoma was more than 100 µM in each case.
Take `O=C(O)CSC1=NNC2(C(=O)N1)c1ccccc1-c1ccccc12`: the TGI in the experiment on HT29 colon, in the experiment on EKVX NSCLC, with OVCAR-8 ovarian, with A549 NSCLC, in the experiment on SF-295 CNS and in the experiment with NCI-H460 lung was more than 10 µM each time. The TGI with UACC-257 melanoma, in the experiment on SN12C renal and in the experiment with SK-MEL-5 melanoma was more than 10 µM in each case.
